How the values were obtained:
[1] = molecular target: T1, human TLR7 (Homo sapiens, UniProt Q9NYK1); assay: TLR7 inhibition reporter assay (HEK-Blue cells, SEAP reporter, gardiquimod stimulation); assay type: cell-based; settings: HEK-Blue cells overexpressing human TLR7, gardiquimod 7.5 μM
T1 construct: host or cells: HEK-Blue cells
T1 sequence (Q9NYK1 27-1049): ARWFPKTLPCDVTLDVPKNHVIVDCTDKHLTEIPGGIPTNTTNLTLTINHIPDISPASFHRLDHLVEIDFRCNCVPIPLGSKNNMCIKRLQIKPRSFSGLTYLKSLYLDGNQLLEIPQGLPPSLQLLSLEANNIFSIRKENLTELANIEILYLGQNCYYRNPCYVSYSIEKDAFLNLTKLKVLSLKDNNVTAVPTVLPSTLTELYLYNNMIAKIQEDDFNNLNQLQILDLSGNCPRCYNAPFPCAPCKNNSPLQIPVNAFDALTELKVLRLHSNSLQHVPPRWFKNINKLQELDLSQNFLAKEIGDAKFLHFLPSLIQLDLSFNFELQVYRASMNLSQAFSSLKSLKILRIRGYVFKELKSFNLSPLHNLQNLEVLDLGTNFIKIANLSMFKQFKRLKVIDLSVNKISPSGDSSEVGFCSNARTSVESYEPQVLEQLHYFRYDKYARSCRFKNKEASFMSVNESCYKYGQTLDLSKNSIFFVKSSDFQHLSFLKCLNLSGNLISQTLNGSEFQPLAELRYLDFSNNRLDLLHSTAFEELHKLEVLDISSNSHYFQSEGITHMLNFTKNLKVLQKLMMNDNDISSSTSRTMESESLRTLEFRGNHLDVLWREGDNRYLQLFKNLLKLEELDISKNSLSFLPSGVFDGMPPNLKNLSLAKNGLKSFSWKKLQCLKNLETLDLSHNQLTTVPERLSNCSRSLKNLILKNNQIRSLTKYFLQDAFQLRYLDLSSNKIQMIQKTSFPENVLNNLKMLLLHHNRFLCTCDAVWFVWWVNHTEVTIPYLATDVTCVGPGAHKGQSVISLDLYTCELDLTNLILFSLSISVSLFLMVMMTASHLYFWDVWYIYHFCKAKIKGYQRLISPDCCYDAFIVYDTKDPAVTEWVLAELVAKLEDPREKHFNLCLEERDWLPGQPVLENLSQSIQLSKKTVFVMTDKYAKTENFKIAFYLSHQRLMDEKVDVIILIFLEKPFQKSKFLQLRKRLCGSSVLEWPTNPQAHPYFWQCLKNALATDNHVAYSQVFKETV
Method in brief: (§1)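 SEAP readout via HEK-Blue Detection medium after 22 h at 37 °C, 5% CO2 defines inhibition, normalized between agonist-plus-DMSO wells and a reference inhibitor. Compound dose range 0.05 nM–50 μM; TLR7 cells at 15,000/well (gardiquimod), TLR8 at 20,000/well (R848).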

[2] = molecular target: T2, human TLR8 (Homo sapiens, UniProt Q9NR97); assay: TLR8 inhibition reporter assay (HEK-Blue cells, SEAP reporter, R848 stimulation); assay type: cell-based; settings: HEK-Blue cells overexpressing human TLR8, R848 15.9 μM
T2 construct: host or cells: HEK-Blue cells
T2 sequence (Q9NR97 27-1041): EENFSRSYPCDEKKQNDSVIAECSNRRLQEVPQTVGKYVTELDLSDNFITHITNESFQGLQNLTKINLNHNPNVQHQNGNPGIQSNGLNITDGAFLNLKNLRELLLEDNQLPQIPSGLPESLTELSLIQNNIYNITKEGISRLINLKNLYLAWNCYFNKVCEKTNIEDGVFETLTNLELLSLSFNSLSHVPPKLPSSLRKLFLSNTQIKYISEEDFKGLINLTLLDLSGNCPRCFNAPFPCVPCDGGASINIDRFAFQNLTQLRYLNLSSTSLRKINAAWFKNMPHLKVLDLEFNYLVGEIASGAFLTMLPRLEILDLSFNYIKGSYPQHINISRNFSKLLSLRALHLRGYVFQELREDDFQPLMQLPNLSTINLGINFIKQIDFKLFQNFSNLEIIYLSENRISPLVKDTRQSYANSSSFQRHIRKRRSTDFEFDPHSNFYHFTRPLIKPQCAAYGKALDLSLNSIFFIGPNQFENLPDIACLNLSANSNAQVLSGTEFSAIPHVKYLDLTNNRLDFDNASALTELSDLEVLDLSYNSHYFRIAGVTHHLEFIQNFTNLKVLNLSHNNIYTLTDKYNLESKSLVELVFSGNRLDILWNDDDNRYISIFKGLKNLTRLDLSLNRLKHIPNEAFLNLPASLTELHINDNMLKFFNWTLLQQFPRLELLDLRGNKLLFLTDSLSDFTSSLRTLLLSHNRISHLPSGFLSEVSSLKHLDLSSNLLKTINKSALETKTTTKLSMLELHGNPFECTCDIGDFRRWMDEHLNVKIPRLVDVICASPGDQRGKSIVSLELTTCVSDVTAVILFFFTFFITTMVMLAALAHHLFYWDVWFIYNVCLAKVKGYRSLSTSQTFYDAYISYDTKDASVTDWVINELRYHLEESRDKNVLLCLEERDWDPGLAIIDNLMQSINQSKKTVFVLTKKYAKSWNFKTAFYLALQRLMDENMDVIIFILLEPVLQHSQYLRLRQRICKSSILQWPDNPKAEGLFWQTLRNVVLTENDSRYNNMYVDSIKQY
Method in brief: as §1

Row | Compound | IC50 [1] | IC50 [2]
1 | COc1ccc(-c2[nH]c3ccc(C4CCN(C(=O)CC(F)(F)F)CC4)cc3c2CC(F)(F)F)cc1OC [Example 339, 1-(4-(2-(3,4-dimethoxyphenyl)-3-(2,2,2-trifluoroethyl)-1H-indol-5-yl)piperidin-1-yl)-3,3,3-trifluoropropan-1-one] | 331 nM | 822 nM
2 | COc1ccc(-c2[nH]c3ccc(C4CCN(CC(=O)N(C)CCN(C)C)CC4)cc3c2CC(F)(F)F)cc1OC [Example 367, 2-(4-(2-(3,4-dimethoxyphenyl)-3-(2,2,2-trifluoroethyl)-1H-indol-5-yl)piperidin-1-yl)-N-(2-(dimethylamino)ethyl)-N-methylacetamide] | 23 nM | 36 nM
3 | COc1ccc(-c2[nH]c3ccc(C4CCN(CC(=O)N(C)C5CCN(C)C5)CC4)cc3c2CC(F)(F)F)cc1OC (centres unmarked) [Example 370, 2-(4-(2-(3,4-dimethoxyphenyl)-3-(2,2,2-trifluoroethyl)-1H-indol-5-yl)piperidin-1-yl)-N-methyl-N-(1-methylpyrrolidin-3-yl)acetamide] | 27 nM | 55 nM
4 | COc1ccc(-c2[nH]c3ccc(C4CCN(CC(=O)NCCN(C)C)CC4)cc3c2CC(F)(F)F)cc1OC [Example 380, 2-(4-(2-(3,4-dimethoxyphenyl)-3-(2,2,2-trifluoroethyl)-1H-indol-5-yl)piperidin-1-yl)-N-(2-(dimethylamino)ethyl)acetamide] | 33 nM | 55 nM
5 | COc1ccc(-c2[nH]c3ccc(C4CCNC(=O)C4)cc3c2C(C)C)cc1OC (centres unmarked) [Example 326, 4-(2-(3,4-dimethoxyphenyl)-3-isopropyl-1H-indol-5-yl)piperidin-2-one] | 127 nM | 192 nM
6 | COc1ccc(-c2[nH]c3ccc(C4CCN(CC(=O)NCCCn5ccnc5)CC4)cc3c2CC(F)(F)F)cc1OC [Example 383, N-(3-(1H-imidazol-1-yl)propyl)-2-(4-(2-(3,4-dimethoxyphenyl)-3-(2,2,2-trifluoroethyl)-1H-indol-5-yl)piperidin-1-yl)acetamide] | 13 nM | 30 nM
7 | COc1ccc(-c2[nH]c3ccc(C4CCN(C(=O)C5CCN(C(C)=O)CC5)CC4)cc3c2CC(F)(F)F)cc1OC [Example 345, 1-(4-(4-(2-(3,4-dimethoxyphenyl)-3-(2,2,2-trifluoroethyl)-1H-indol-5-yl)piperidine-1-carbonyl)piperidin-1-yl)ethan-1-one] | 256 nM | 1030 nM
8 | COc1ccc(-c2[nH]c3ccc(C4CCN(C(=O)CCC(N)=O)CC4)cc3c2CC(F)(F)F)cc1OC [Example 333, 4-(4-(2-(3,4-dimethoxyphenyl)-3-(2,2,2-trifluoroethyl)-1H-indol-5-yl)piperidin-1-yl)-4-oxobutanamide] | 94 nM | 702 nM
9 | COc1ccc(-c2[nH]c3ccc(C4CCN(CC(=O)NCC(N)=O)CC4)cc3c2CC(F)(F)F)cc1OC [Example 385, N-(2-amino-2-oxoethyl)-2-(4-(2-(3,4-dimethoxyphenyl)-3-(2,2,2-trifluoroethyl)-1H-indol-5-yl)piperidin-1-yl)acetamide] | 61 nM | 41 nM
10 | COc1ccc(-c2[nH]c3ccc(C4CCN(CC(=O)N5CCN(c6ncccn6)CC5)CC4)cc3c2CC(F)(F)F)cc1OC [Example 368, 2-(4-(2-(3,4-dimethoxyphenyl)-3-(2,2,2-trifluoroethyl)-1H-indol-5-yl)piperidin-1-yl)-1-(4-(pyrimidin-2-yl)piperazin-1-yl)ethan-1-one] | 159 nM | 74 nM
11 | CCN(CC)C(=O)C1CCCN(CC(=O)N2CCC(c3ccc4[nH]c(-c5ccc(OC)c(OC)c5)c(C5CCOCC5)c4c3)CC2)C1 (centres unmarked) [Example 392, 1-(2-(4-(2-(3,4-dimethoxyphenyl)-3-(tetrahydro-2H-pyran-4-yl)-1H-indol-5-yl)piperidin-1-yl)-2-oxoethyl)-N,N-diethylpiperidine-3-carboxamide] | 681 nM | 196 nM
12 | COc1ccc(-c2[nH]c3ccc(C4CCN(C(=O)Cc5ccc(N(C)C)cc5)CC4)cc3c2CC(F)(F)F)cc1OC [Example 338, 1-(4-(2-(3,4-dimethoxyphenyl)-3-(2,2,2-trifluoroethyl)-1H-indol-5-yl)piperidin-1-yl)-2-(4-(dimethylamino)phenyl)ethan-1-one] | 1490 nM | 1460 nM
13 | COc1ccc(-c2[nH]c3ccc(C4CCN(C(=O)CCN5CCCCC5)CC4)cc3c2CC(F)(F)F)cc1OC [Example 330, 1-(4-(2-(3,4-dimethoxyphenyl)-3-(2,2,2-trifluoroethyl)-1H-indol-5-yl)piperidin-1-yl)-3-(piperidin-1-yl)propan-1-one] | 57 nM | 84 nM
14 | COc1ccc(-c2[nH]c3ccc(C4CCN(C(=O)CN(C)C)CC4)cc3c2CC(F)F)cc1OC [Example 399, 1-(4-(3-(2,2-difluoroethyl)-2-(3,4-dimethoxyphenyl)-1H-indol-5-yl)piperidin-1-yl)-2-(dimethylamino)ethan-1-one] | 106 nM | 82 nM
15 | COc1ccc(-c2[nH]c3ccc(C4CCN(C(=O)NCc5ccco5)CC4)cc3c2CC(F)(F)F)cc1OC [Example 358, 4-(2-(3,4-dimethoxyphenyl)-3-(2,2,2-trifluoroethyl)-1H-indol-5-yl)-N-(furan-2-ylmethyl)piperidine-1-carboxamide] | ≥ 50000 nM | 2920 nM
16 | COc1ccc(-c2[nH]c3ccc(C4CCN(C(=O)CCCn5ccnc5)CC4)cc3c2CC(F)(F)F)cc1OC [Example 331, 1-(4-(2-(3,4-dimethoxyphenyl)-3-(2,2,2-trifluoroethyl)-1H-indol-5-yl)piperidin-1-yl)-4-(1H-imidazol-1-yl)butan-1-one] | 33 nM | 221 nM
17 | COc1ccc(-c2[nH]c3ccc(C4CCNCC4F)cc3c2C(C)C)cc1OC (single isomer, unassigned) [Example 323, 2-(3,4-dimethoxyphenyl)-5-(3-fluoropiperidin-4-yl)-3-isopropyl-1H-indole] | 42 nM | 20 nM
18 | CCNC(=O)N1CCC(c2ccc3[nH]c(-c4ccc(OC)c(OC)c4)c(CC(F)(F)F)c3c2)CC1 [Example 356, 4-(2-(3,4-dimethoxyphenyl)-3-(2,2,2-trifluoroethyl)-1H-indol-5-yl)-N-ethylpiperidine-1-carboxamide] | 618 nM | 626 nM
19 | COc1ccc(-c2[nH]c3ccc(C4CCN(C(=O)CCCNC(C)=O)CC4)cc3c2CC(F)(F)F)cc1OC [Example 343, N-(4-(4-(2-(3,4-dimethoxyphenyl)-3-(2,2,2-trifluoroethyl)-1H-indol-5-yl)piperidin-1-yl)-4-oxobutyl)acetamide] | 174 nM | 371 nM

— patent US11180474B2 (BRISTOL-MYERS SQUIBB COMPANY, priority 2016, dated 2021)
